# Test results from patent US4118585A, “Anionic benzene tetrakis carbonylimino isophthalic acid salts” (priority 1977, dated 1978).
# Columns and labels:
# activated human C1 = assay: Test, Code 026 (C1 inhibitor); format: biochemical; conditions: serial two-fold dilution assay; higher well number indicates higher activity
# From the text: (§1) An active inhibitor protects C2 from C1 and C4; (ii) Test, Code 035 (C3-C9 inhibitor) -- This test determines the ability of the late components of human complement (C3-C9) to lyse EAC 142 in the presence of appropriate dilutions of the test compound. An active inhibitor protects EAC 142 from lysis by human C3-C9; (iii) Test, Code 036 (C-Shunt inhibitor) -- In this test human erythrocytes rendered fragile are lysed in autologous serum via the shunt pathway activated by cobra venom factor in the presence of appropriate dilutions of the test compound. Inhibition of the shunt pathway results in failure of lysis; (iv) Forssman Vasculitis Test -- Here, the well known complement dependent lesion, Forssman vasculitis, is produced in guinea pigs by intradermal injection of rabbit anti-Forssman antiserum. […]
# [1] = system: shunt pathway activated by cobra venom factor; assay: Test, Code 036 (C-Shunt inhibitor); format: cell-based; conditions: serial two-fold dilution assay; fragile human erythrocytes in autologous serum
# From the text: as §1
# [2] = system: late components of human complement (C3-C9); assay: Test, Code 035 (C3-C9 inhibitor); format: biochemical; set-up: key: N=Negative; conditions: serial two-fold dilution assay; lysis of EAC 142 by human C3-C9
# From the text: as §1
compound,measurement,setting,value
"O=C([O-])c1cc(NC(=O)c2cc(C(=O)Nc3cc(C(=O)[O-])cc(C(=O)[O-])c3)c(C(=O)Nc3cc(C(=O)[O-])cc(C(=O)[O-])c3)cc2C(=O)Nc2cc(C(=O)[O-])cc(C(=O)[O-])c2)cc(C(=O)[O-])c1.[Na+].[Na+].[Na+].[Na+].[Na+].[Na+].[Na+].[Na+] [5,5',5"",5'""-[1,2,4,5-Benzenetetrayltetrakis(carbonylimino)]-tetraisophthalic acid octasodium salt]",Cl 026 Wells,activated human C1,+7 Wells
same,Shunt Inhibition 036 Wells,[1],+3 Wells
same,C-Late 035 Wells,[2],N
